# Reference: ChEMBL document CHEMBL1142710, “3D-QSAR comparative molecular field analysis on opioid receptor antagonists: pooling data from different studies” (J Med Chem, 2005)
# Experiments:
# Mu-type opioid receptor = Mu-type opioid receptor (Rattus norvegicus, UniProt P33535); test: Binding affinity against Opioid receptor mu 1 from rat brain membranes using [3H]DAMGO
# [1] = target: Delta-type opioid receptor (Rattus norvegicus, UniProt P33533); test: Binding affinity against Opioid receptor delta 1 from rat brain membranes using [3H]DADLE
# [2] = target: Kappa-type opioid receptor (Cavia porcellus, UniProt P41144); test: Binding affinity against Opioid receptor kappa 1 from guinea pig brain membranes using [3H]U-69593
# Kappa-type opioid receptor, sequence (P41144 whole entry): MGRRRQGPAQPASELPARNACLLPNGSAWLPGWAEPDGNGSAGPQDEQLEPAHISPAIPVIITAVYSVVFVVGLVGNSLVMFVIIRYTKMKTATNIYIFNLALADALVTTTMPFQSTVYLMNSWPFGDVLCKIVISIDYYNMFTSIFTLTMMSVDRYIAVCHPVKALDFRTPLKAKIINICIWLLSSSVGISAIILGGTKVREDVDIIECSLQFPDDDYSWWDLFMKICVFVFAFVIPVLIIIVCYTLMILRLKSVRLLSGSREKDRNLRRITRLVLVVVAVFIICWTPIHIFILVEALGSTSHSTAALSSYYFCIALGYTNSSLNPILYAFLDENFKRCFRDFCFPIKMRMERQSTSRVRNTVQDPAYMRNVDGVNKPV
# Mu-type opioid receptor, sequence (P33535 whole entry): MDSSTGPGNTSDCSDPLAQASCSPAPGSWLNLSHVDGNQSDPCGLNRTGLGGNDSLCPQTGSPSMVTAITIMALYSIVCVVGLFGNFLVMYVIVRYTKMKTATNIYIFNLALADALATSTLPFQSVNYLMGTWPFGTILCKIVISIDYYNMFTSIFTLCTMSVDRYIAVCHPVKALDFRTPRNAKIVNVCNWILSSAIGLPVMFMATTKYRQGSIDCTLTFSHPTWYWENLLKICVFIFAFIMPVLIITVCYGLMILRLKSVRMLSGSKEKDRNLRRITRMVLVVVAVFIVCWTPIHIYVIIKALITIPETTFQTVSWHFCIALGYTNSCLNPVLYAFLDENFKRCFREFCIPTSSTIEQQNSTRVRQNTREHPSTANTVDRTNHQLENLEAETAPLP
# Delta-type opioid receptor, sequence (P33533 whole entry): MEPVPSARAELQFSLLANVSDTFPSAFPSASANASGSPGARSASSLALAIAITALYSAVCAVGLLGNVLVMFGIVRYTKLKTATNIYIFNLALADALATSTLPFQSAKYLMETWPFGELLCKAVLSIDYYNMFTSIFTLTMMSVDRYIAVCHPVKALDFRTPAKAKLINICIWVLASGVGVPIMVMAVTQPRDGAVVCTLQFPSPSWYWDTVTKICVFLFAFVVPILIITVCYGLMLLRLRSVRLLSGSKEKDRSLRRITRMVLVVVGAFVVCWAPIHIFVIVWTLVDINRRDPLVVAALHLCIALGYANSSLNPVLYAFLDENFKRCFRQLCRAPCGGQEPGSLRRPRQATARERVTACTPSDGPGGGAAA
Compound,Ki (Mu-type opioid receptor) [nM],Ki [1] [nM],Ki [2] [nM]
CN1CCC23c4c5ccc(O)c4O[C@H]2c2ncc(-c4ccc(Cl)cc4)cc2C[C@H]3C1C5 (some centres undefined),148,4.37,77.6
CN1CCC23c4c5ccc(O)c4O[C@H]2c2ncc(-c4ccc(Cl)cc4)cc2C[C@@]3(O)C1C5 (some centres undefined),229,3.89,468
CC(C)CCN1CC[C@]23c4c5ccc(O)c4O[C@@H]2c2[nH]c4ccccc4c2C[C@@]3(O)[C@H]1C5,1290,3.8,676
O[C@@]12Cc3c([nH]c4ccccc34)[C@H]3Oc4c(-c5ccco5)ccc5c4[C@@]31CCN(CC1CC1)[C@@H]2C5,–,955,–
CN1CCC23c4c5ccc(O)c4O[C@H]2c2ncc(-c4ccc(Br)cc4)cc2C[C@H]3C1C5 (some centres undefined),200,5.01,91.2
Cc1ncc2c(n1)[C@@H]1Oc3c(O)ccc4c3C13CCN(CC1CC1)C(C4)[C@]3(O)C2 (some centres undefined),6.03,22.9,25.1
CN1CCC23c4c5ccc(O)c4O[C@H]2c2ncc(-c4ccccc4)cc2C[C@@]3(O)C1C5 (some centres undefined),25.7,2.88,363
O=C(Oc1ccc2c3c([nH]c2c1)[C@H]1Oc2c(O)ccc4c2[C@@]12CCN(CC1CC1)[C@H](C4)[C@]2(O)C3)c1ccccc1,676,6.76,468
C=C(C)CN1CC[C@]23c4c5ccc(OC)c4O[C@@H]2c2[nH]c4ccccc4c2C[C@@]3(O)[C@H]1C5,–,501,–
C=C(N)NCCCC(=O)NC1CC2CC(c3cccc(O)c3)(C1)C(C)CN2CCCc1ccccc1 (centres undefined),87.1,1740,13.2
O[C@@]12Cc3c([nH]c4ccccc34)[C@H]3Oc4c(-c5ccccc5)ccc5c4[C@@]31CCN(CC1CC1)[C@@H]2C5,–,10500,–
CO[C@@]12CCC(=O)CC13CCN(CC1CC1)C2Cc1cccc(OC/C=C/c2ccccc2)c13 (some centres undefined),28.2,832,363
C=C(C)CN1CCC23c4c5ccc(OC)c4O[C@H]2c2[nH]ncc2C[C@@]3(O)C1C5 (some centres undefined),–,2400,3090
Oc1ccc2c3c1O[C@H]1c4nc(-c5ccccc5)ncc4C[C@@]4(O)C(C2)N(CC2CC2)CCC314 (some centres undefined),21.9,15.8,11
Oc1cccc(-c2ccc3c4c2O[C@@H]2c5[nH]c6ccccc6c5C[C@@]5(O)[C@@H](C3)N(CC3CC3)CC[C@]425)c1,–,1620,–
CC1CN(CCCc2ccccc2)C2CC(NC(=O)CCCN(C)C)CC1(c1cccc(O)c1)C2 (centres undefined),57.5,1450,12
C=C(N)NCCC(=O)NC1CC2CC(c3cccc(O)c3)(C1)C(C)CN2CCCc1ccccc1 (centres undefined),5.25,56.2,23.4
CO[C@@]12CCC(=O)CC13CCN(CC1CC1)C2Cc1cccc(OCc2ccccc2)c13 (some centres undefined),11.5,214,56.2
CCCCN1CC[C@]23c4c5ccc(O)c4O[C@@H]2c2[nH]c4ccccc4c2C[C@@]3(O)[C@H]1C5,1290,8.32,891
Oc1ccc2c3c1O[C@@H]1c4[nH]c5c(Oc6ccccc6)cccc5c4C[C@@]4(O)[C@@H](C2)N(CC2CC2)CC[C@]314,33.9,0.708,33.9
COc1ccc2c(c1O)[C@]13CCN(CC4CC4)C(C2)[C@]1(O)CC1c2ccccc2NC1C3 (some centres undefined),1860,21.9,3160

Compound,Ki (Mu-type opioid receptor) [nM],Ki [1] [nM],Ki [2] [nM]
C=C(C)CN1CC[C@]23c4c5ccc(O)c4O[C@@H]2c2[nH]c4ccccc4c2C(C)[C@H]3[C@H]1C5 (some centres undefined),1070,8.91,851
Oc1ccc2c3c1O[C@H]1c4ncc(-c5ccc(Cl)cc5)cc4C[C@H]4C(C2)N(CC2CC2)CCC314 (some centres undefined),61.7,2.57,6.03
Oc1ccc2c3c1O[C@H]1c4ncc(-c5ccc(Cl)cc5)cc4C[C@@]4(O)C(C2)N(CC2CC2)CCC314 (some centres undefined),51.3,2.19,20
CCCCCN1CC[C@]23c4c5ccc(O)c4O[C@@H]2c2[nH]c4ccccc4c2C[C@@]3(O)[C@H]1C5,2820,15.8,2000
O=C1CC[C@@]2(OCCCc3ccccc3)C3Cc4cccc(O)c4C2(CCN3CC2CC2)C1 (some centres undefined),0.398,5.01,5.89
CCCCCCN1CC[C@]23c4c5ccc(O)c4O[C@@H]2c2[nH]c4ccccc4c2C[C@@]3(O)[C@H]1C5,4570,25.7,3090
Oc1ccc2c3c1O[C@@H]1c4[nH]c5cccc(-c6ccccc6)c5c4C[C@@]4(O)[C@@H](C2)N(CC2CC2)CC[C@]314,1510,52.5,2950
CC(C)CN1CC[C@]23c4c5ccc(O)c4O[C@@H]2c2[nH]c4ccccc4c2C[C@@]3(O)[C@H]1C5,2570,3.8,646
Oc1ccc2c3c1O[C@@H]1c4[nH]c5cc(-c6ccccc6)ccc5c4C[C@@]4(O)[C@@H](C2)N(CC2CC2)CC[C@]314,1290,18.2,631
CCN1CC[C@]23c4c5ccc(O)c4O[C@@H]2c2[nH]c4ccccc4c2C[C@@]3(O)[C@H]1C5,2510,5.01,3020
Oc1ccc2c3c1O[C@H]1c4nccc(-c5ccccc5)c4C[C@@]4(O)C(C2)N(CC2CC2)CCC314 (some centres undefined),191,72.4,263
CCCCOc1cccc2c1C13CCN(CC4CC4)C(C2)[C@]1(OCCCc1ccccc1)CCC(=O)C3 (some centres undefined),14.8,234,151
CCCCOc1cccc2c1[C@]13CCN(CC4CC4)[C@H](C2)[C@]1(OC)CCC(=O)C3,13.8,759,263
CC1c2c([nH]c3ccccc23)[C@H]2Oc3c(O)ccc4c3[C@@]23CCN(CC2CC2)[C@H](C4)[C@H]13 (some centres undefined),66.1,2.29,36.3
CC(C)=CCN1CC[C@]23c4c5ccc(O)c4O[C@@H]2c2[nH]c4ccccc4c2C[C@@]3(O)[C@H]1C5,2820,25.1,3240
CN1CC[C@]23c4c5ccc(O)c4O[C@@H]2c2[nH]c4ccccc4c2C[C@H]3[C@H]1C5,708,2.4,–
Cc1ccc2c3c1O[C@@H]1c4[nH]c5ccccc5c4C[C@@]4(O)[C@@H](C2)N(CC2CC2)CC[C@]314,–,70.8,–
Oc1ccc2c3c1O[C@H]1c4ncncc4C[C@@]4(O)C(C2)N(CC2CC2)CCC314 (some centres undefined),4.17,3.47,6.31
CN1CCC23c4c5ccc(O)c4O[C@H]2c2ncc(-c4ccc(Cl)cc4Cl)cc2C[C@H]3C1C5 (some centres undefined),97.7,1.1,407
COc1ccc2c(c1O)[C@]13CCN(C)C(C2)[C@]1(O)CC1c2ccccc2NC1C3 (some centres undefined),2820,219,–
CCO[C@@]12Cc3c([nH]c4ccccc34)[C@]3(C)Oc4c(O)ccc5c4[C@@]31CCN(C)[C@@H]2C5,–,–,288

Compound,Ki (Mu-type opioid receptor) [nM],Ki [1] [nM],Ki [2] [nM]
COc1ccc2c(c1O)[C@]13CCN(C)C(C2)[C@@H]1CC1c2ccccc2NC1C3 (some centres undefined),2820,93.3,–
COc1ccc2c3c1O[C@@H]1c4[nH]c5ccccc5c4C(C)[C@H]4[C@@H](C2)N(C)CC[C@]314 (some centres undefined),–,26.9,–
Oc1ccc2c3c1O[C@@H]1c4[nH]c5ccc(Oc6ccccc6)cc5c4C[C@@]4(O)[C@@H](C2)N(CC2CC2)CC[C@]314,295,17.8,75.9
CN1CCC23c4c5ccc(O)c4O[C@H]2c2ncc(-c4ccccc4)cc2C[C@H]3C1C5 (some centres undefined),24,4.9,81.3
CC1c2c([nH]c3ccccc23)[C@H]2Oc3c(O)ccc4c3[C@@]23CCN(C)[C@H](C4)[C@H]13 (some centres undefined),240,0.708,126
C=CCN1CCC23c4c5ccc(O)c4O[C@@]2(C)c2[nH]c4ccccc4c2C[C@@]3(OCC)C1C5 (some centres undefined),661,10.7,759
C=CCN1CCC23c4c5ccc(O)c4O[C@H]2c2ncc(-c4ccc(Cl)cc4)cc2C[C@@]3(O)C1C5 (some centres undefined),468,8.13,75.9
Oc1ccc2c3c1O[C@H]1c4nc(-c5ccccc5)ccc4C[C@@]4(O)C(C2)N(CC2CC2)CCC314 (some centres undefined),11,1.78,18.2
CCCCCCCN1CC[C@]23c4c5ccc(O)c4O[C@@H]2c2[nH]c4ccccc4c2C[C@@]3(O)[C@H]1C5,4570,79.4,–
COc1ccc2c3c1O[C@@H]1c4[nH]c5ccccc5c4C[C@H]4[C@@H](C2)N(C)CC[C@]314,–,95.5,–
C=C(C)CN1CCC23c4c5ccc(OC)c4O[C@H]2C(=O)/C(=C\c2ccccc2)C[C@@]3(O)C1C5 (some centres undefined),–,3390,–
CC(C)N1CC[C@]23c4c5ccc(O)c4O[C@@H]2c2[nH]c4ccccc4c2C[C@@]3(O)[C@H]1C5,–,33.1,6170
C=C(C)CN1CCC23c4c5ccc(OC)c4O[C@H]2c2ncc(-c4ccc(Cl)cc4)cc2C[C@@]3(O)C1C5 (some centres undefined),–,257,3240
CCCCC1c2c([nH]c3ccccc23)[C@H]2Oc3c(OC)ccc4c3[C@@]23CCN(C)[C@H](C4)[C@H]13 (some centres undefined),–,372,–
C=C(C)CN1CCC23c4c5ccc(O)c4O[C@H]2c2ncc(-c4ccc(Cl)cc4)cc2C[C@@]3(O)C1C5 (some centres undefined),–,15.8,302
Oc1ccc2c3c1O[C@H]1c4[nH]c5ccccc5c4C[C@@]4(O)[C@@H](C2)N(CC2CC2)CC[C@]314 [NALTRINDOLE],–,–,26.9
C=C(C)CN1CCC23c4c5ccc(OC)c4O[C@H]2c2oc4ccccc4c2C[C@@]3(O)C1C5 (some centres undefined),–,43.7,–
CCN1CC[C@]23CC4Nc5ccccc5C4C[C@@]2(O)C1Cc1ccc(OC)c(O)c13 (some centres undefined),794,692,–
C=Cc1ccc2c3c1O[C@@H]1c4[nH]c5ccccc5c4C[C@@]4(O)[C@@H](C2)N(CC2CC2)CC[C@]314,–,61.7,17800
